# Measurements: patent US20210023074A1, “TREATMENT OF DEMYELINATING DISEASES” (Victoria Link Ltd., priority 2018, published 2021)
# Entries after “also recorded” stand apart in the source; their conditions may differ.
# Tested on: experimental autoimmune encephalomyelitis (EAE) mice
# Experiment: EAE model of MS, disease score, treatment from day of disease onset (score >1)
# Assay type: in vivo, C57BL/6 mice
# Description: Experimental detail: EAE was induced in female C57BL/6 mice as described in Example 1. On the day of disease onset (score >1, dotted line), mice were started on daily treatment with vehicle only (Veh) or nalmefene (NaIM) at 0.1, 0.03, 0.01, or 0.003 mg/kg by i.p. injection. […]
# (§1) Experimental detail: EAE was induced in female C57BL/6 mice as described in Example 1. On the day of disease onset (score >1, dotted line), mice were treated with vehicle only (daily), nalmefene (0.01 mg/kg by i.p. injection daily), the KOR antagonist norBNI (10 mg/kg by i.p. injection weekly), both nalmefene and norBNI, or the MOR antagonist BFNA (10 mg/kg by i.p. injection weekly).
# as §1, with “weekly). The peak disease score during the first EAE episode was recorded, and mice were considered recovered if they received a score <0.5 by day 23 post treatment initiation.” for “weekly).”
# Experimental detail: EAE was induced in female C57BL/6 mice as described in Example 1.
smiles,measurement,setting,value
COC(=O)/C=C/C(=O)N[C@@H]1CC[C@@]2(O)[C@H]3Cc4ccc(O)c5c4[C@@]2(CCN3CC2CC2)[C@H]1O5 [BFNA],recovery from paralysis (disease score),10 mg/kg i.p. weekly from disease onset,does not enable recovery
CN1CCC[C@@H]1CCO[C@](C)(c1ccccc1)c1ccc(Cl)cc1 [clemastine fumerate],number of days in recovery (sustained recovery),"nalmefene 0.01 mg/kg i.p. daily, clemastine fumerate 10 mg/kg i.p.",recovery is not sustained
Oc1ccc2c3c1O[C@H]1c4[nH]c5c(c4C[C@@]4(O)[C@@H](C2)N(CC2CC2)CC[C@]314)C[C@@]1(O)[C@H]2Cc3ccc(O)c4c3[C@@]1(CCN2CC1CC1)[C@H]5O4 [norBNI],effect on nalmefene-mediated recovery from paralysis,norBNI 10 mg/kg i.p. weekly with nalmefene 0.01 mg/kg i.p. daily,abolishes the ability of nalmefene to enable full recovery from paralysis; also recorded: abolishes the ability of nalmefene to enable and sustain recovery from paralysis
